Results reported in US4695573A (Hoechst-Roussel Pharmaceuticals Inc., priority 1985, dated 1987).
Where a name gives a salt, the structure may show the parent alone. Read-outs that look alike come from different tables or passages of the source.

What was measured:
acetylcholinesterase = acetylcholinesterase (Homo sapiens, UniProt P22303); experiment: Cholinesterase Inhibition Assay (photometric method of Ellman et al.); format: biochemical
[1] = system: cholinergically deficient memory; experiment: Dark Avoidance Assay (block of scopolamine-induced memory impairment); format: in vivo, mice; conditions: Mus musculus, read-out: % of Animals Greater than Scopolamine; for responders at 0.16 mg/kg: dose 0.16 mg/kg of body weight; for responders at 5 mg/kg: dose 5.0 mg/kg of body weight; for responders at 2.5 mg/kg: dose 2.5 mg/kg of body weight; for responders at 1.25 mg/kg: dose 1.25 mg/kg of body weight
Method: In this assay mice are tested for their ability to remember an unpleasant stimulus for a period of 24 hours. A mouse is placed in a chamber that contains a dark compartment; a strong incandescent light drives it to the dark compartment, where an electric shock is administered through metal plates on the floor. The animal is removed from the testing apparatus and tested again, 24 hours later, for the ability to remember the electric shock.
If scolopamine, an anticholinergic that is known to cause memory impairment, is administered before an animal's initial exposure to the test chamber, the animal re-enters the dark compartment shortly after being placed in the test chamber 24 hours later.

[2] = mice, dose 0.63 mg/kg of body weight, retest after 24 hours
[3] = photometric method of Ellman, read-out: Cholinesterase Inhibition IC50

Chain of acetylcholinesterase (P22303 32-614): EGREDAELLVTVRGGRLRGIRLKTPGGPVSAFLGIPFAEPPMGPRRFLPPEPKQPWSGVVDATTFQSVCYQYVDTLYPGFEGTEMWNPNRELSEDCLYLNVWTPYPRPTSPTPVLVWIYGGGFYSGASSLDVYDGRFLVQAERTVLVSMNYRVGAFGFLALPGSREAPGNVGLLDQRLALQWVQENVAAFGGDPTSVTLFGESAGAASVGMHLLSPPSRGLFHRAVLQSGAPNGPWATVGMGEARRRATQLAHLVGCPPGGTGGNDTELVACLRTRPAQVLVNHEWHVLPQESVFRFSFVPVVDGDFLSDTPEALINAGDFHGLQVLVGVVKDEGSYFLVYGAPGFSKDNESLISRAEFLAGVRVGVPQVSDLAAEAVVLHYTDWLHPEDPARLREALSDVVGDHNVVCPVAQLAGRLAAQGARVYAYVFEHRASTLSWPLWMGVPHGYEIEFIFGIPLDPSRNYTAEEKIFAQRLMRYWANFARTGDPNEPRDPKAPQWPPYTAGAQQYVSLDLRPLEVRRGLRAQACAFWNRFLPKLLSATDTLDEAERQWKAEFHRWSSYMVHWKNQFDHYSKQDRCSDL

In the case of `OC1CCCc2nc3ccccc3c(NCc3ccccc3C(F)(F)F)c21` (stereo not shown) [1,2,3,4-Tetrahydro-9-(2-trifluoromethylbenzylamino)acridin-1-ol], the IC50 (acetylcholinesterase) is reported as 920 µM and the responders at 0.16 mg/kg ([1]; mice, retest after 24 hours) is reported as 38%.
In the case of `OC1CCCc2nc3ccccc3c(NCc3ccc(C(F)(F)F)cc3)c21` (stereo not shown) [1,2,3,4-Tetrahydro-9-(4-trifluoromethylbenzylamino)acridin-1-ol], the IC50 (acetylcholinesterase) is reported as 550 µM and the responders at 0.16 mg/kg ([1]; mice, retest after 24 hours) is reported as 22%.
Compound `O=C1CCCc2nc3ccccc3c(NCCCC(c3ccccc3)c3ccccc3)c21` [3,4-Dihydro-9-(4,4-diphenylbutylamino)acridin-1(2H)-one] has an IC50 (acetylcholinesterase) of 13 µM and a responders at 0.63 mg/kg [1, 2] of 50%.
`O=C1CCCc2nc3ccccc3c(NCCCC(c3cccc(F)c3)c3cccc(F)c3)c21` [3,4-Dihydro-9-[4,4-bis(3-fluorophenyl)butylamino]acridin-1(2H)-one] gave an IC50 (acetylcholinesterase) of 1.9 µM and a responders at 5 mg/kg ([1]; mice, retest after 24 hours) of 40%.
Work on `OC1CCCc2nc3ccccc3c(NCc3ccccc3Cl)c21` (stereo not shown) [9-(2-Chlorobenzylamino)-1,2,3,4-tetrahydroacridin-1-ol] yielded an IC50 (acetylcholinesterase) of 130 µM and a responders at 0.31 mg/kg ([1]; mice, dose 0.31 mg/kg of body weight, retest after 24 hours) of 27%.
With `OC1CCCc2nc3ccccc3c(NCc3ccccc3F)c21` (stereo not shown) [9-(2-Fluorobenzylamino)-1,2,3,4-tetrahydroacridin-1-ol maleate] the IC50 (acetylcholinesterase) was 210 µM and the responders at 2.5 mg/kg ([1]; mice, retest after 24 hours) was 27%.
`COc1ccccc1CNc1c2c(nc3ccccc13)CCCC2O` (stereo not shown) [9-(2-Methoxybenzylamino)-1,2,3,4-tetrahydroacridin-1-ol] gave an IC50 (acetylcholinesterase) of 150 µM and a responders at 0.21 mg/kg ([1]; mice, dose 0.21 mg/kg of body weight, retest after 24 hours) of 33%.
Compound `OC1CCCc2nc3ccccc3c(NCc3ccc(F)cc3)c21` (stereo not shown) [9-(4-fluorobenzylamino)-1,2,3,4-tetrahydroacridin-1-ol] has an IC50 (acetylcholinesterase) of 110 µM and a responders at 1.25 mg/kg ([1]; mice, retest after 24 hours) of 33%.
Compound `Nc1c2c(nc3cc(C(F)(F)F)ccc13)CCCC2O` (stereo not shown) [9-Amino-1,2,3,4-tetrahydro-6-trifluoromethylacridin-1-ol] has a responders at 0.63 mg/kg [1, 2] of 71%.
`Nc1c2c(nc3ccccc13)CCCC2O` (stereo not shown) [9-Amino-1,2,3,4-tetrahydroacridin-1-ol] gave a responders at 0.63 mg/kg [1, 2] of 33%.
Compound `Nc1c2c(nc3ccccc13)CCCC2=O` [9-Amino-3,4-dihydroacridin-1(2H)--one, 9-Amino-3,4-dihydroacridin-1(2H)-one] has an IC50 (acetylcholinesterase; [3]) of 250 µM.
For `Nc1c2c(nc3ccccc13)CCC=C2` [9-Amino-3,4-dihydroacridine], the IC50 (acetylcholinesterase) was 6.5 µM and the responders at 2.5 mg/kg ([1]; mice, retest after 24 hours) was 20%.
With `OC1CCCc2nc3ccccc3c(NCc3ccccc3)c21` (stereo not shown) [9-Benzylamino-1,2,3,4-tetrahydroacridin-1-ol] the responders at 1.25 mg/kg ([1]; mice, retest after 24 hours) was 27%.
For `O=C1CCCc2nc3cc(F)ccc3c(NCc3ccccc3)c21` [9-Benzylamino-3,4-dihydro-6-fluoroacridin-1(2H)-one, maleate], the responders at 5 mg/kg ([1]; mice, retest after 24 hours) was 40%.
Compound `OC1CCCc2nc3ccccc3c(NCCc3ccccc3)c21` (stereo not shown) [9-Phenethylamino-1,2,3,4-tetrahydroacridin-1-ol] has an IC50 (acetylcholinesterase; [3]) of 240 µM.
With `OC1CCCc2nc3ccccc3c(NCc3c(F)c(F)c(F)c(F)c3F)c21` (stereo not shown) [9-[(2,3,4,5,6-Pentafluorobenzyl)amino]-1,2,3,4-tetrahydroacridin-1-ol, fumarate] the IC50 (acetylcholinesterase) was 350 µM and the responders at 5 mg/kg ([1]; mice, retest after 24 hours) was 20%.
`CC[C@@H]1C(=O)OC[C@@H]1Cc1cncn1C` [Pilocarpine, reference compound] was tested, and the responders at 5 mg/kg ([1]; mice, retest after 24 hours) was 13%.
For `Nc1c2c(nc3ccccc13)CCCC2` [Tacrine, 9-Amino-1,2,3,4-tetrahydroacridine, reference compound], the responders at 0.63 mg/kg ([1]; 24 h) was 13%.
